Data as given in article PMC4979516, “Quinazoline-based tricyclic compounds that regulate programmed cell death, induce neuronal differentiation, and are curative in animal models for excitotoxicity and hereditary brain disease” (Cell Death Discovery, 2015).

Legend:
[1] = test system: U118MG cells; assay: Mitochondrial membrane potential (JC-1) assay in U118MG cells exposed to glutamate; format: cell-based, human; settings: 25 μM compound, 35 mM glutamate
Excerpt: (§1) JC-1 was used to assay changes in Δψm, as described previously.[71],[79] Owing to charges distributed along JC-1 molecules, they pass unimpaired (charged) mitochondrial membranes and enter the mitochondrial matrix. There the J-molecules form J-aggregates, which emit at 590 nm (orange–red fluorescence). […] The monomers emit at 527 nm (green fluorescence). A decrease in the red–green fluorescence intensity ratio is an indication for mitochondrial depolarization. As a positive control, the proton ionophore carbonyl cyanide m-chlorophenylhydrazone was used as described previously.[71] Cells were collected and prepared for suspension in 10 μg/ml of JC-1 solution in PBS. After incubation at 37 °C for 30 min in the dark, the cells were washed with 0.5 ml of PBS, and the cell suspensions were analyzed with the BD FACSCalibur flow cytometer.

[2] = test system: U118MG cells; assay: Mitochondrial ROS / cardiolipin oxidation (NAO) assay in U118MG cells exposed to glutamate; format: cell-based, human; settings: 25 μM compound, 35 mM glutamate
Excerpt: Cardiolipin is present in the inner mitochondrial membrane, at the contact sites with the outer mitochondrial membrane. By application of NAO, we assayed cardiolipin peroxidation as an indication of mitochondrial ROS generation, as described previously.[71] NAO binds with high affinity to non-oxidized cardiolipin in a 2 : 1 ratio, but with less affinity to oxidized cardiolipin, the latter which is reflected by lower levels of green NAO fluorescence.[78] For our study, cells were collected and centrifuged at 1200×g for 5 min, 4 °C. Cell pellets were re-suspended in 0.5 ml of 0.1 μM NAO and incubated for 30 min at 37 °C in the dark. Then, the cells were washed once with 0.5 ml PBS and transferred into 5 ml FALCON FACS tubes and analyzed with the aid of a BD FACSCalibur flow cytometer using CellQuest software (BD Biosciences, Franklin Lakes, NJ, USA).

[3] = test system: PC12 cells; assay: Collapse of mitochondrial membrane potential (JC-1) in PC12 cells; format: cell-based, rat; settings: PC12, 50 μM MGV-1, 35 mM glutamate
Excerpt: as §1

[4] = test system: PC12 cells strain #1 (polygonal cells); assay: Neuronal differentiation (neurite sprouting) of PC12 strain #1; format: cell-based, rat; settings: strain #1, only polygonal cells
[5] = test system: NeuN expression in PC12 cells strain #3; assay: Western blot of NeuN in PC12 strain #3; format: cell-based, rat; settings: PC12 strain #3, versus vehicle control
Experimental: The relative protein levels of TSPO and other proteins related to neurodifferentiation (including β-actin, NeuN, tubulin-3β), were assayed by immunoblotting with the aid electrophoresis through 12% SDS-polyacrylamide gel, according to previously described methods.[71] A priori, general protein levels were measured by the method of Bradford using BSA as a standard.[75] After electrophoresis, the gels were subjected to electrophoretic transfer to nitrocellulose membranes. Then, the membranes were blocked for 1 h in 5% non-fat milk in 62.5 mM sodium phosphate buffer, pH 7.4, containing 100 mM NaCl, and 0.1% (v/v) Tween-20 (PBS-T) and then incubated for 2 h or overnight at 4 °C with the appropriate antibodies: anti-tubulin-3β 1 : 10 000, anti-NeuN 1 : 1000, anti β-actin 1 : 15 000, and anti-TSPO 1 : 10 000.[73] After washing with TBS-T, the membranes were incubated with IgG secondary antibody linked to horseradish peroxidase (anti-rabbit IgG 1 : 20 000, anti-mouse IgG 1 : 10 000, as appropriate, from Jackson Immunologicals, West Grove, PA, USA) in TBS-T at room temperature. Binding of antibodies to the membrane was detected with the EZ-ECL-detection reagent (Biological Industries), using the ImageQuant LAS 4010 apparatus and Totallab Quant quantitative image analysis of Totallab (Newcastle upon Tyne, England).

[6] = test system: R6-2 mice; assay: R6-2 transgenic mouse model for Huntington disease (lifespan, behavior); format: in vivo; settings: pilot studies, s.c. daily 5 days per week; MGV-1 15 mg/kg, PK 11195 15 mg/kg, MGV-2 15 and 7.5 mg/kg
Excerpt: Huntington disease in humans is a hereditary disease including neurodegeneration leading to degradation in motor performance, continual involuntary movements, tremors, cardiovascular and respiratory impairments, and finally leading to death of the patients having the disease.[88] For this study, R6-2 mice (~120 CAG repeats B6CBA-Tg(HDexon1)62 Gpb/3J) mice were used as a transgenic mouse model for Huntington disease. For this purpose, mice obtained from the Jackson Laboratory were bred. In particular, males hemizygous for Tg(HDexon1)62 Gpb, and females from the wild-type background strain B6CBAF1/J, were bred according to the protocol of Jackson Laboratory.
For tests of drug efficacy, male offspring hemizygous for Tg(HDexon1)62 Gpb were used to determine drug effect on lifespan, motor activity, and general well-being of the animals. Drug treatment for this study consisted of daily (5 continuous days per week) subcutaneous injections in the neck area of mice with 20 μl of: the drug vehicle DMSO (vehicle control), 2-Cl-MGV-1(7.5 mg/kg) and 2-Cl-MGV-2 (7.5 mg/kg). […] Quantities were used according to previous studies regarding TSPO ligands[48] and adapted depending on the findings in the course of the pilot studies. The treatments were given until the animals died a natural death. Behavioral experiments included distance covered in an open field apparatus,[89] freezing,[89] and balance on a rotor-rod.[90] Spontaneous tremor activity was evaluated using a Hamilton–Kinder sensor in a soundproof ventilated apparatus (Kinder Scientific). The assays for locomotor activity, tremors, and body weight were performed on a weekly basis, together with evaluation of the well-being of the mice. Finally, the day of death was noted. As lifespan data were most pronounced, these are presented in the present description of the results. No adverse effects of any of the drug treatments were noted, neither for specific tests, nor for general observations. Importantly, DMSO had no effect by itself as compared with naive mice or saline-injected mice with various behavioral assays.[20]

**Q.** What does the source list for CN(C)C(=O)Oc1nc(-c2ccccc2)nc2ccccc12 [MGV-1, 2-phenylquinazolin-4-yl dimethylcarbamate]?
**A.** Prevention of collapse of the ΔΨm induced by glutamate (JC-1) [1]: prevention of the collapse of the ΔΨm; Prevention of cardiolipin oxidation / mitochondrial ROS generation induced by glutamate (NAO) [2]: prevent cardiolipin oxidation; Enhancement of the incidence of collapse of the ΔΨm [3]: threefold; Differentiation of PC12 strain #1 by the agent by itself [4]: can be differentiated by MGV-1 by itself; Increase of NeuN expression (western blot) [5]: do not enhance NeuN expression significantly; Effect on behavior and lifespan of R6-2 mice [6]: did not appear to have an effect
